Experimental data from patent US20170044121A1, “TETRA-O-SUBSTITUTED BUTANE-BRIDGE MODIFIED NDGA DERIVATIVES, THEIR SYNTHESIS AND PHARMAECUTICAL USE” (Erimos Pharmaceuticals LLC, priority 2006, published 2017).
Counter-ions that a name gives are not always drawn. Like-named read-outs stand apart in the source and are kept apart here. One block for each compound: values may come before it.

How the values were obtained:
[1] = test system: TAT transactivation of the HIV-1 LTR promoter (TAT-TRS); experiment: cells; type: cell-based; conditions: Human immunodeficiency virus 1, COS-7, 48 h, read-out: SEAP EC50
COS-7 cells = experiment: MTT cytotoxicity in COS-7 cells (run with SEAP); type: cell-based, green monkey; conditions: Chlorocebus sabaeus
A549 (lung carcinoma) = experiment: MTS cell viability assay, A549; type: cell-based
[2] = test system: HeLa (cervical adenocarcinoma); experiment: MTS cell viability assay, HeLa; type: cell-based; conditions: read-out: HeLa IC50
MCP-1 = MCP-1 protein production in TNF-α-treated primary human keratinocytes; type: cell-based; conditions: Keratinocyte, read-out: MCP-1 IC50
[3] = test system: H-69 small cell lung cancer cells; conditions: cited from earlier work
[4] = test system: apoptosis in cultured cells (DNA fragmentation); experiment: TiterTACS DNA fragmentation apoptosis assay; type: cell-based; conditions: TiterTACS apoptosis detection
VEGF = experiment: ELISA VEGF assay (DFO-induced hypoxia); type: cell-based; conditions: Homo sapiens, read-out: VEGF IC50
[5] = test system: NSCLC cell line panel (9 cell lines); conditions: NSCLC (9 cell lines), 48 hours, SRB
[6] = test system: Colon Cancer cell line panel (6 cell lines); conditions: Colon Cancer (6 cell lines), 48 hours, SRB
[7] = test system: Breast Cancer cell line panel (8 cell lines); conditions: Breast Cancer (8 cell lines), 48 hours, SRB
[8] = test system: Ovarian Cancer cell line panel (6 cell lines); conditions: Ovarian Cancer (6 cell lines), 48 hours, SRB
[9] = test system: Leukemia cell line panel (6 cell lines); conditions: Leukemia (6 cell lines), 48 hours, SRB
[10] = test system: Renal Cancer cell line panel (8 cell lines); conditions: Renal Cancer (8 cell lines), 48 hours, SRB
[11] = test system: Melanoma cell line panel (8 cell lines); conditions: Melanoma (8 cell lines), 48 hours, SRB
[12] = test system: Prostate cell line panel (1 cell line); conditions: Prostate (1 cell line), 48 hours, SRB
[13] = test system: CNS cell line panel (5 cell lines); conditions: CNS (5 cell lines), 48 hours, SRB
Caco-2 cell monolayers [14] = conditions: for Mass balance mean A to B: 50 μM
[15] = test system: NSCLC cell line panel (9 cell lines); experiment: cells; conditions: Homo sapiens, 48 h, read-out: LC50
[16] = test system: Colon Cancer cell line panel (6 cell lines); experiment: cells; conditions: Homo sapiens, 48 h, read-out: LC50
[17] = test system: Breast Cancer cell line panel (8 cell lines); experiment: cells; conditions: Homo sapiens, 48 h, read-out: LC50
[18] = test system: Ovarian Cancer cell line panel (6 cell lines); experiment: cells; conditions: Homo sapiens, 48 h, read-out: LC50
[19] = test system: Leukemia cell line panel (6 cell lines); experiment: cells; conditions: Homo sapiens, 48 h, read-out: LC50
[20] = test system: Renal Cancer cell line panel (8 cell lines); experiment: cells; conditions: Homo sapiens, 48 h, read-out: LC50
[21] = test system: Melanoma cell line panel (8 cell lines); experiment: cells; conditions: Homo sapiens, 48 h, read-out: LC50
[22] = test system: Prostate cell line panel (1 cell line); experiment: cells; conditions: Homo sapiens, 48 h, read-out: LC50
[23] = test system: CNS cell line panel (5 cell lines); experiment: cells; conditions: Homo sapiens, 48 h, read-out: LC50
in vitro [24] = conditions: human; for Papp A→B at 90 min, 50 μM: Caco-2, pH 7.4, Papp mean A to B
[25] = Non-specific binding to 24-well assay plate without cells; conditions: single well of a 24-well assay plate without cells
survivin = experiment: ELISA survivin assay (cell lysates); type: cell-based; conditions: Homo sapiens, survivin protein in cell lysates
in vitro [26] = experiment: in vitro
[27] = Caco-2 monolayer permeability study; conditions: human
Caco-2 cell monolayers [28] = experiment: Caco-2 monolayer permeability study
[29] = cited from earlier work
Caco-2 cell monolayers [30] = conditions: Caco-2 test system, historical values; cited from earlier work
[31] = Homo sapiens, A549, read-out: A549 IC50
[32] = MTT assay, COS-7 test cells of the SEAP assay, read-out: COS-7 IC50
[33] = TNF-α-treated PHK, MCP-1 protein production, ELISA
[34] = human, Caco-2, 90 min, 1 μM, pH 7.4
[35] = Caco-2, nominal conc. 20 μM, 90 minutes, duplicate monolayers

SMILES: Cc1nc(COc2ccc(CCCCc3ccc(OCc4csc(C)n4)c(OCc4csc(C)n4)c3)cc2OCc2csc(C)n2)cs1 (as salt: hydrochloride) [Compound G, 1,4-bis{3,4-bis(2-methyl-thiazol-4-yl-methoxy)phenyl}-butane tetrakis-hydrochloride salt]
melting point: 96 to 98 °C

SMILES: COc1ccc(CCCCc2ccc(OC)c(OC)c2)cc1OC [Compound A, 1,4-bis-(3,4-methoxyphenyl) butane]
EC50 [1]: > 100 µM | IC50 (COS-7 cells; COS-7, read-out: COS-7 IC50): > 100 µM | IC50 (A549 (lung carcinoma); [31]): > 100 µM | IC50 ([2]; Homo sapiens, HeLa): > 100 µM | IC50 (MCP-1): > 100 µM

melting point: 140 to 142 °C
SMILES: Oc1ccc(CCCCc2ccc(O)c(O)c2)cc1O [Compound B, 1,4-bis-(3,4-hydroxyphenyl) butane]
potency relative to NDGA as proliferative inhibitor [3]: 10 times

SMILES: CCOc1ccc(CCCCc2ccc(OCC)c(OCC)c2)cc1OCC [Compound C, 1,4-bis-(3,4-ethoxyphenyl) butane]
EC50 [1]: > 100 µM | IC50 (COS-7 cells; [32]): > 100 µM | IC50 (A549 (lung carcinoma); Homo sapiens, A549, MTS assay, read-out: A549 IC50): > 100 µM | IC50 ([2]; Homo sapiens, HeLa, MTS assay): > 100 µM | IC50 (MCP-1; [33]): > 100 µM | melting point: 113 to 115 °C

SMILES: c1cc(OCCCN2CCCCC2)c(OCCCN2CCCCC2)cc1CCCCc1ccc(OCCCN2CCCCC2)c(OCCCN2CCCCC2)c1 [Compound D, 1,4-bis{3,4-bis[3-(piperidin-1-yl)propoxy]phenyl}-butane]
EC50 [1]: 0.7 to 0.8 µM | IC50 (COS-7 cells; [32]): 0.8 to 0.9 µM | IC50 (A549 (lung carcinoma); MTS assay, read-out: A549 IC50): 1 to 2 µM | IC50 ([2]; Homo sapiens, HeLa, MTS assay): 5 to 6 µM | DNA fragmentation [4]: Positive | IC50 (VEGF; VEGF released into media, ELISA): ~4 µM | IC50 (MCP-1; [33]): 3 µM | Mean Growth Percent at 10 μM ([5]; 10 μM): 62.77% | TGI [5]: 7.31E−6 | Mean Growth Percent at 10 μM ([6]; 10 μM): 40.49% | TGI [6]: 6.45E−6 | Mean Growth Percent at 10 μM ([7]; 10 μM): 59.72% | TGI [7]: 2.11E−5 | Mean Growth Percent at 10 μM ([8]; 10 μM): 66.18% | TGI [8]: 1.46E−5 | Mean Growth Percent at 10 μM ([9]; 10 μM): 12.31% | TGI [9]: 4.28E−6 | Mean Growth Percent at 10 μM ([10]; 10 μM): 82.54% | TGI [10]: 1.70E−5 | Mean Growth Percent at 10 μM ([11]; 10 μM): 16.46% | TGI [11]: 7.74E−6 | Mean Growth Percent at 10 μM ([12]; 10 μM): 2.84% | TGI [12]: 2.76E−5 | Mean Growth Percent at 10 μM ([13]; 10 μM): 78.88% | TGI [13]: 4.13E−6 | BCS permeability class (Caco-2 cell monolayers [14]; Caco-2): moderate-to-high | Papp A to B (Caco-2 cell monolayers [14]; [34]): 14 ×10⁻⁶ cm/s | Papp B to A (Caco-2 cell monolayers [14]; [34]): 2.51 ×10⁻⁶ cm/s | Polarization Ratio [B-A/A-B] (Caco-2 cell monolayers [14]; [34]): 0.18 | CC50 [15]: 28.4 µM | CC50 [16]: 22.8 µM | CC50 [17]: 30.8 µM | CC50 [18]: 35.3 µM | CC50 [19]: 13.4 µM | CC50 [20]: 37 µM | CC50 [21]: 15.9 µM | CC50 [22]: 53.9 µM | CC50 [23]: 11 µM | Papp A→B at 90 min, 1 μM (in vitro [24]; Caco-2, pH 7.4, Papp A to B): 13.8 ×10⁻⁶ cm/s | Papp B→A at 90 min, 1 μM (in vitro [24]; Caco-2, pH 7.4, Papp B to A): 2.35 ×10⁻⁶ cm/s | efflux ratio at 90 min, 1 μM (in vitro [24]; Caco-2, pH 7.4, Polarization Ratio [B-A/A-B]): 0.1 to 0.2 | recovery at 90 min, 1 μM [25]: 35%

SMILES: c1cc(OCCCN2CCCCC2)c(OCCCN2CCCCC2)cc1CCCCc1ccc(OCCCN2CCCCC2)c(OCCCN2CCCCC2)c1 [Compound E, 1,4-bis{3,4-bis[3-(piperidin-1-yl)propoxy]phenyl}-butane tetrakis-hydrochloride salt]
IC50 (A549 (lung carcinoma); MTS assay, read-out: A549 IC50): 9 µM | IC50 ([2]; MTS assay): 5 to 10 µM

SMILES: CN1CCN(CCOc2ccc(CCCCc3ccc(OCCN4CCN(C)CC4)c(OCCN4CCN(C)CC4)c3)cc2OCCN2CCN(C)CC2)CC1 [Compound F, 1,4-bis{3,4-bis[2-(1-methyl-piperazin-4-yl)-ethoxy]phenyl}-butane]
IC50 (A549 (lung carcinoma); [31]): > 100 µM | IC50 ([2]; Homo sapiens, HeLa): > 100 µM

SMILES: Cc1nc(COc2ccc(CCCCc3ccc(OCc4csc(C)n4)c(OCc4csc(C)n4)c3)cc2OCc2csc(C)n2)cs1 [Compound G, 1,4-bis{3,4-bis(2-methyl-thiazol-4-yl-methoxy)phenyl}-butane tetrakis-hydrochloride salt]
IC50 (A549 (lung carcinoma); [31]): > 100 µM | IC50 ([2]; Homo sapiens, HeLa): > 100 µM

SMILES: CN(C)CCOc1ccc(CCCCc2ccc(OCCN(C)C)c(OCCN(C)C)c2)cc1OCCN(C)C [Compound H, 1,4-bis{3,4-bis(2-(N,N′-dimethylamino)-ethoxy)phenyl}-butane]
EC50 [1]: 30 to 40 µM | IC50 (COS-7 cells; COS-7, read-out: COS-7 IC50): 20 to 30 µM | IC50 (A549 (lung carcinoma); [31]): 20 to 40 µM | IC50 ([2]; Homo sapiens, HeLa): 20 to 30 µM | DNA fragmentation [4]: Positive | IC50 (survivin): ~25 µM | IC50 (VEGF): > 60 µM | IC50 (MCP-1): 75 µM | melting point: 65 to 67 °C | recovery at 90 min, 20 μM (in vitro [26]): 96% | Papp B→A at 90 min, 20 μM ([27]; Caco-2, pH 7.4): 10.1 ×10⁻⁶ cm/s | Papp A→B at 90 min ([27]; Caco-2, pH 7.4, BCS permeability class, from A-B Papp in Caco-2 versus mannitol and propranolol): > 14.2 ×10⁻⁶ cm/s | Papp A→B at 90 min, 20 μM ([27]; Caco-2, pH 7.4, Papp A to B, Caco-2, nominal conc. 20 μM, 90 minutes, duplicate monolayers): 66.7 ×10⁻⁶ cm/s | efflux ratio at 90 min, 20 μM ([27]; Caco-2, pH 7.4, Polarization Ratio [B-A/A-B], Caco-2, nominal conc. 20 μM): 0.1 to 0.2 | Polarization Ratio [B-A/A-B] (Caco-2 cell monolayers [28]; Caco-2, nominal conc. 20 μM): 0.15 | Papp A to B (Caco-2 cell monolayers [28]; [35]): 64.4 ×10⁻⁶ cm/s | Papp B to A (Caco-2 cell monolayers [28]; [35]): 10.1 ×10⁻⁶ cm/s | Mass Balance A to B (Caco-2 cell monolayers [28]; Caco-2, nominal conc. 20 μM, recovery from apical and basolateral chambers, duplicates): ≧100%

SMILES: COc1ccc(C[C@@H](C)[C@@H](C)Cc2ccc(OC)c(OC)c2)cc1OC [Compound M4N, (tetra-O-methyl)nordihydroguaiaretic acid]
water solubility [29]: poor

SMILES: C[C@H]1O[C@@H](O[C@H]2[C@@H](O)C[C@H](O[C@H]3[C@@H](O)C[C@H](O[C@H]4CC[C@@]5(C)[C@H](CC[C@@H]6[C@@H]5C[C@@H](O)[C@]5(C)[C@@H](C7=CC(=O)OC7)CC[C@]65O)C4)O[C@@H]3C)O[C@@H]2C)C[C@H](O)[C@@H]1O [digoxin, reference compound]
Papp A→B at 90 min, 5 μM ([27]; Caco-2, pH 7.4, Papp mean A to B, Caco-2, 5 μM, 90 minutes, pH 7.4): 2.28 ×10⁻⁶ cm/s | Mass balance mean A to B (Caco-2 cell monolayers [28]; Caco-2, 5 μM, 90 minutes): 73% | Mass balance mean B to A (Caco-2 cell monolayers [28]; Caco-2, 5 μM, 90 minutes): 79% | Polarization Ratio mean (B-A/A-B) (Caco-2 cell monolayers [28]; Caco-2, 5 μM, 90 minutes): 5.4 | Papp mean B to A (Caco-2 cell monolayers [28]; Caco-2, 5 μM, 90 minutes, pH 7.4): 12.4 ×10⁻⁶ cm/s

Mass balance mean A to B (Caco-2 cell monolayers [14]; human, Caco-2, 90 min, pH 7.4): 96% | Papp A→B at 90 min, 50 μM (in vitro [24]): 0.514 ×10⁻⁶ cm/s
SMILES: OC[C@@H](O)[C@@H](O)[C@H](O)[C@H](O)CO [mannitol, reference compound]

Mass balance mean A to B (Caco-2 cell monolayers [14]; human, Caco-2, 90 min, pH 7.4): 71% | Papp A→B at 90 min, 50 μM (in vitro [24]): 14.2 ×10⁻⁶ cm/s
SMILES: CC(C)NCC(O)COc1cccc2ccccc12 (stereo not shown) [propranolol, reference compound]
Papp historical range at the testing facility (mean ± SD) (Caco-2 cell monolayers [30]): 1.5×10^−5±4.2×10^−5
